Here are results for 17 molecules from patent US20250136606A1, “MODULATORS OF TRPML, THEIR COMPOSITIONS AND METHODS OF USE” (Caraway Therapeutics, Inc., priority 2021, published 2025).

Like-named read-outs stand apart in the source and are kept apart here.

One may read the EC50 as the concentration at which the effect is half-maximal.

Holding throughout (format): cell-based
In one assay the target is T1, TRPML2 (Homo sapiens, UniProt Q8IZK6).
T1 construct: expressed in transfected cells
T1 sequence (Q8IZK6 1-566): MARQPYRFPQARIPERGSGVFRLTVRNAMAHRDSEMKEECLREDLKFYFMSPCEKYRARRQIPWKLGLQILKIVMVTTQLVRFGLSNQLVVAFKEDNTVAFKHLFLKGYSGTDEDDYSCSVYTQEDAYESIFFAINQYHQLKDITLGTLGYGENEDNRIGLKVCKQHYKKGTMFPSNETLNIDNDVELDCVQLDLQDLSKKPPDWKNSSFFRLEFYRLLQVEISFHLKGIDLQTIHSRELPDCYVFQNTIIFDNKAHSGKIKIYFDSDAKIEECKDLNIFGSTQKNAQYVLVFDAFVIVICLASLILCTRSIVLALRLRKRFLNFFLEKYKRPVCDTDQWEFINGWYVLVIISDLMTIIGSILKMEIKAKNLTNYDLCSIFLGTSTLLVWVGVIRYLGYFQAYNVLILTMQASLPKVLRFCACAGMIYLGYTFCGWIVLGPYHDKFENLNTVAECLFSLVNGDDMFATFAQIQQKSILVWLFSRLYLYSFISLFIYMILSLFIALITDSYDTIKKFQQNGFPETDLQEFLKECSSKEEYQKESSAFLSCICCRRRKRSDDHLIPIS
Briefly: Fluorescent TRPML2 assay (performed as for TRPML1, substituting the TRPML2 subtype). An outline of the steps:
(§1)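 HEK-293 Trex cells with doxycycline-induced (0.5 ug/mL) surface-directed human TRPML subtype, loaded with 1 μM Fluo4-AM, resuspended in Ringer's with 10 mM calcium. Compounds at 20 μM to 6 nM final in half-log steps, triplicate; fluorescence ex 480/em 540; EC50 by non-linear regression versus plate controls.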

The target in a further assay is TRPML1 (Homo sapiens, UniProt Q9GZU1). As to the kind of experiment: Fluorescent TRPML1 assay (Fluo4-AM calcium fluorescence in doxycycline-induced HEK-293 Trex cells). Summed up:
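First, expression of surface-targeted mutant human TRPML1 is induced in HEK-293 Trex cells with 0.5 ug/mL doxycycline the day before. Next, cells take up 1 micromolar Fluo4-AM in Ringer's with 0.1% Pluronic. Finally, they are added to compounds (6 nanomolar–20 micromolar final) in 10 mM calcium Ringer's and fluorescence is read.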

Another assay addresses T2, TRPML3 (Homo sapiens, UniProt Q8TDD5).
T2 construct: expressed in transfected cells
T2 sequence (Q8TDD5 1-553): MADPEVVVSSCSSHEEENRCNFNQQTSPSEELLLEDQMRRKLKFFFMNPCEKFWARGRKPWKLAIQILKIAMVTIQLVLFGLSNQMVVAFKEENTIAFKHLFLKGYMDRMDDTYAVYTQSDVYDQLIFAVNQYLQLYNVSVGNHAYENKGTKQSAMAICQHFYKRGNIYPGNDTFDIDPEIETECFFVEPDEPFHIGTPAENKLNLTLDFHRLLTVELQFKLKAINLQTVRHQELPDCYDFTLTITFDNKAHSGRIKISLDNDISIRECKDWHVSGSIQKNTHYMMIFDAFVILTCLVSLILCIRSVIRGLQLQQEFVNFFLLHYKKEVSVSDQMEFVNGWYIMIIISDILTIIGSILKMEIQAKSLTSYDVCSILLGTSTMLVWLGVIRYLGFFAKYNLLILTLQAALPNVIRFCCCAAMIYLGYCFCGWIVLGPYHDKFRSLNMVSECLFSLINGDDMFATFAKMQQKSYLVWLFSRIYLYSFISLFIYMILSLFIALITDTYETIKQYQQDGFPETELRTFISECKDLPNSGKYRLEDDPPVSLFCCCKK
Briefly: Fluorescent TRPML3 assay (performed as for TRPML1, substituting the TRPML3 subtype). An outline of the steps: as §1

Sequence of TRPML1 (Q9GZU1 whole entry L15A/L16A/L577A/L578A, form open): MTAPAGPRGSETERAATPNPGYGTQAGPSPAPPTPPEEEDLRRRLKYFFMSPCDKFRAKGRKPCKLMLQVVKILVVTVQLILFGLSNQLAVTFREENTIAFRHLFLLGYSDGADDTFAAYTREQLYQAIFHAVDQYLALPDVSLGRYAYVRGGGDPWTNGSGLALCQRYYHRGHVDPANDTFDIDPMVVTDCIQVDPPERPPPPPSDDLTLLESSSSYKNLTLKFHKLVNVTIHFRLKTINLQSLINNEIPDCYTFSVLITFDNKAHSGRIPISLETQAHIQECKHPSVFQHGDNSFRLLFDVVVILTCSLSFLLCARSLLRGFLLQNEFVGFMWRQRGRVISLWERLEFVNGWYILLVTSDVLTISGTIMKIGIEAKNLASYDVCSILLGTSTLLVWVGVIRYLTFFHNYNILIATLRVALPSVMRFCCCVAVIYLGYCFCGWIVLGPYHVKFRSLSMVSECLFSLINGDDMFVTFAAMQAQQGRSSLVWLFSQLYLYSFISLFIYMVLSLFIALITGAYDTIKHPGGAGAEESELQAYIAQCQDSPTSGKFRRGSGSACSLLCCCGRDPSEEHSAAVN

For the molecule `C[C@@H]1CN(C(=O)OC(C)(C)C(F)(F)F)CCN1c1ncnc2c1c(C1CC1)cn2-c1ccc(Cl)cc1` [Compound 141, 1,1,1-trifluoro-2-methylpropan-2-yl (R)-4-(7-(4-chlorophenyl)-5-cyclopropyl-7H-pyrrolo[2,3-d]pyrimidin-4-yl)-3-methylpiperazine-1-carboxylate], the EC50 on TRPML2 (fluorescent calcium assay) is 100 to 500 nM; on TRPML1 (fluorescent calcium assay), under 100 nM; at TRPML3 (fluorescent calcium assay) it was under 100 nM.
Consider `C[C@H]1CN(C(=O)OC(C)(C)C)CCN1c1ncnc2c1c(C1CC1)cn2-c1nccc(C#N)n1` [Compound 432, tert-Butyl (S)-4-(7-(4-cyanopyrimidin-2-yl)-5-cyclopropyl-7H-pyrrolo[2,3-d]pyrimidin-4-yl)-3-methylpiperazine-1-carboxylate], for which the EC50 was 500 to 2000 nM at TRPML2 (fluorescent calcium assay), 100 to 500 nM on TRPML1 (fluorescent calcium assay) and under 100 nM at TRPML3 (fluorescent calcium assay).
Turning to `C[C@@H]1CN(c2ncnc3c2c(C(F)F)cn3-c2cc(C#N)ccn2)CCN1C(=O)OC(C)(C)C` [Compound 511, tert-butyl (R)-4-(7-(4-cyanopyridin-2-yl)-5-(difluoromethyl)-7H-pyrrolo[2,3-d]pyrimidin-4-yl)-2-methylpiperazine-1-carboxylate], the EC50 at TRPML2, at TRPML1 and on TRPML3 was under 100 nM in each case.
In the case of `C[C@@H]1CN(c2ncnc3c2c(C2CC2)cn3-c2ccc(F)c(F)c2)CCN1C(=O)OC(C)(C)C` [Compound 109, tert-butyl (R)-4-(5-cyclopropyl-7-(3,4-difluorophenyl)-7H-pyrrolo[2,3-d]pyrimidin-4-yl)-2-methylpiperazine-1-carboxylate], the EC50 at TRPML2 (fluorescent calcium assay), at TRPML1 (fluorescent calcium assay) and at TRPML3 (fluorescent calcium assay) was under 100 nM each time.
On to `C[C@H]1CN(C(=O)OC(C)(C)C)CCN1c1ncnc2c1c(C1CC1)cn2-c1ncc(C#N)[nH]1` [Compound 440, tert-butyl (S)-4-(7-(5-cyano-1H-imidazol-2-yl)-5-cyclopropyl-7H-pyrrolo[2,3-d]pyrimidin-4-yl)-3-methylpiperazine-1-carboxylate], for which the EC50 at TRPML2 (fluorescent calcium assay) was over 2000 nM; on TRPML1 (fluorescent calcium assay) it was over 2000 nM; on TRPML3 (fluorescent calcium assay) it was 500 to 2000 nM.
For `C[C@@H]1CN(c2ncnc3c2c(N2CCCC2)cn3-c2cccc(Cl)c2)CCN1C(=O)OC(C)(C)C` [Compound 193, tert-butyl (R)-4-(7-(3-chlorophenyl)-5-(pyrrolidin-1-yl)-7H-pyrrolo[2,3-d]pyrimidin-4-yl)-2-methylpiperazine-1-carboxylate], the EC50 at TRPML2 (fluorescent calcium assay) was 100 to 500 nM; at TRPML1 (fluorescent calcium assay), under 100 nM; on TRPML3 (fluorescent calcium assay), under 100 nM.
Regarding `C[C@@H]1CN(c2ncnc3c2c(C2CC2)cn3-c2ccccn2)[C@@H](C)CN1C(=O)OC(C)(C)C` [Compound 643, tert-butyl (2R,5S)-4-(5-cyclopropyl-7-(pyridin-2-yl)-7H-pyrrolo[2,3-d]pyrimidin-4-yl)-2,5-dimethylpiperazine-1-carboxylate], the EC50 at TRPML2 fell in the range of 500 to 2000 nM; at TRPML1 it was 100 to 500 nM; on TRPML3 it was 100 to 500 nM.
On to `C[C@@H]1CN(c2ncnc3c2c(-c2ccccc2F)cn3-c2ccccn2)CCN1C(=O)OC(C)(C)C` [Compound 192, tert-butyl (R)-4-(5-(2-fluorophenyl)-7-(pyridin-2-yl)-7H-pyrrolo[2,3-d]pyrimidin-4-yl)-2-methylpiperazine-1-carboxylate], for which the EC50 on TRPML2 (fluorescent calcium assay) was 100 to 500 nM; on TRPML1 (fluorescent calcium assay), under 100 nM; at TRPML3 (fluorescent calcium assay), under 100 nM.
Regarding `C[C@@H]1CN(C(=O)OC(C)(C)C)CCN1c1ncnc2c1c(C1CC1)cn2-c1cccc(C#N)c1` [Compound 199, tert-butyl (R)-4-(7-(3-cyanophenyl)-5-cyclopropyl-7H-pyrrolo[2,3-d]pyrimidin-4-yl)-3-methylpiperazine-1-carboxylate], the EC50 at TRPML2 (fluorescent calcium assay), at TRPML1 (fluorescent calcium assay) and on TRPML3 (fluorescent calcium assay) was 100 to 500 nM each time.
Turning to `C[C@@H]1CN(c2ncnc3c2c(N2CCCC2)cn3-c2cccc(OC(F)(F)F)c2)CCN1C(=O)OC(C)(C)C` [Compound 311, tert-butyl (R)-2-methyl-4-(5-(pyrrolidin-1-yl)-7-(3-(trifluoromethoxy)phenyl)-7H-pyrrolo[2,3-d]pyrimidin-4-yl)piperazine-1-carboxylate], the EC50 on TRPML2 (fluorescent calcium assay), at TRPML1 (fluorescent calcium assay) and on TRPML3 (fluorescent calcium assay) was under 100 nM throughout.
Consider `C[C@H]1CN(C(=O)OC(C)(C)C)CCN1c1ncnc2c1c(-c1cnccn1)cn2-c1cccc(Cl)c1` [Compound 120, tert-butyl (S)-4-(7-(3-chlorophenyl)-5-(pyrazin-2-yl)-7H-pyrrolo[2,3-d]pyrimidin-4-yl)-3-methylpiperazine-1-carboxylate], for which the EC50 is 100 to 500 nM on TRPML2 (fluorescent calcium assay), 100 to 500 nM on TRPML1 (fluorescent calcium assay) and under 100 nM on TRPML3 (fluorescent calcium assay).
For the molecule `C[C@H]1CN(C(=O)OC(C)(C)C)CCN1c1ncnc2c1c(-c1nccnc1C(F)(F)F)cn2-c1cccc(Cl)c1` [Compound 273, tert-butyl (S)-4-(7-(3-chlorophenyl)-5-(3-(trifluoromethyl)pyrazin-2-yl)-7H-pyrrolo[2,3-d]pyrimidin-4-yl)-3-methylpiperazine-1-carboxylate], the values for the EC50 at TRPML2 (fluorescent calcium assay), on TRPML1 (fluorescent calcium assay) and at TRPML3 (fluorescent calcium assay) were 500 to 2000 nM, 100 to 500 nM and 100 to 500 nM, respectively.
For `C[C@H]1CN(C(=O)OC(C)(C)C)CCN1c1ncnc2c1c(C1CC1)cn2C1CCOCC1` [Compound 340, tert-butyl (S)-4-(5-cyclopropyl-7-(tetrahydro-2H-pyran-4-yl)-7H-pyrrolo[2,3-d]pyrimidin-4-yl)-3-methylpiperazine-1-carboxylate], the EC50 was over 2000 nM on TRPML2 (fluorescent calcium assay), 500 to 2000 nM on TRPML1 (fluorescent calcium assay) and 100 to 500 nM on TRPML3 (fluorescent calcium assay).
With `C[C@H]1CN(C(=O)OC(C)(C)C)CCN1c1ncnc2c1c(-c1ccccn1)cn2-c1cc(F)cc(F)c1` [Compound 235, tert-butyl-(S)-4-(7-(3,5-difluorophenyl)-5-(pyridin-2-yl)-7H-pyrrolo[2,3-d]pyrimidin-4-yl)-3-methylpiperazine-1-carboxylate], the EC50 on TRPML2 (fluorescent calcium assay), at TRPML1 (fluorescent calcium assay) and on TRPML3 (fluorescent calcium assay) was 100 to 500 nM in each case.
As to `C[C@@H]1CN(c2ncnc3c2c(C(F)(F)F)cn3-c2cc(C#N)ccn2)[C@H](C)CN1C(=O)OC(C)(C)C` [Compound 503, tert-butyl (2R,5R)-4-(7-(4-cyanopyridin-2-yl)-5-(trifluoromethyl)-7H-pyrrolo[2,3-d]pyrimidin-4-yl)-2,5-dimethylpiperazine-1-carboxylate], the figures for the EC50 at TRPML2, at TRPML1 and on TRPML3 were over 2000 nM, under 100 nM and 100 to 500 nM, respectively.
Turning to `Cc1cc(C#N)cc(-n2cc(C3CC3)c3c(N4CCN(C(=O)OC(C)(C)C)C[C@@H]4C)ncnc32)n1` [Compound 403, tert-butyl (S)-4-(7-(4-cyano-6-methylpyridin-2-yl)-5-cyclopropyl-7H-pyrrolo[2,3-d]pyrimidin-4-yl)-3-methylpiperazine-1-carboxylate], the concentration giving a half-maximal response (EC50) at TRPML2 (fluorescent calcium assay) was 500 to 2000 nM; at TRPML1 (fluorescent calcium assay), 100 to 500 nM; at TRPML3 (fluorescent calcium assay), under 100 nM.
As for `Cc1cn(-c2cccc(C#N)c2)c2ncnc(N3CCN(C(=O)OC(C)(C)C)C[C@@H]3C)c12` [Compound 686, tert-butyl (S)-4-(7-(3-cyanophenyl)-5-methyl-7H-pyrrolo[2,3-d]pyrimidin-4-yl)-3-methylpiperazine-1-carboxylate], the EC50 on TRPML2, at TRPML1 and at TRPML3 was under 100 nM throughout.
